Assay results from US20120171166A1, “SYNBIOTIC COMBINATION OF PROBIOTIC AND HUMAN MILK OLIGOSACCHARIDES TO PROMOTE GROWTH OF BENEFICIAL MICROBIOTA” (ABBOTT LABORATORIES, priority 2010, published 2012).
“Also recorded” adds a separate entry of the source.

Tests used:
[1] = test system: Bifidobacterium spp. (12 bifidobacteria strains); assay: Bacterial growth assay (OD600), all bifidobacteria strains tested (Example 37); format: cell-based; conditions: for growth / ability to ferment the carbohydrate (OD600): carbohydrate at 1% final concentration in sMRS+cysteine, all bifidobacteria tested
Method: (§1) All bifidobacteria strains are initially inoculated from frozen stocks, grown in deMan Rogosa Sharpe (MRS) broth (Difco, Detroit, Mich.) supplemented with 0.5 g/L L-cysteine and incubated at 37° C. for 24 h in an anaerobic chamber (90% N2, 5% CO2 and 5% H2). Subsequently, the cultures are passed twice on a semi-synthetic MRS medium (sMRS)+0.5 g/L L-cysteine which is supplemented with 1% (w/v) filter-sterilized glucose as the sole carbohydrate source. After the 2nd pass, cultures are prepared to use as inoculums for growth assays described below. For bifidobacteria strains, the same procedure is followed except all media are supplemented with 0.5 g/l L-cysteine/HCl.
(§2) After the 2nd pass in sMRS+glucose+cysteine, the cultures are washed once with 10 mL of sterile sMRS+cysteine (no carbohydrate), resuspended in 10 ml of sterile sMRS+cysteine (no carbohydrate) and then used as a 1% inoculum. The carbohydrates are sterilized with a 0.22 micron filter and used at a 1% final concentration. Cell growth is performed in 250 μL of sMRS+cysteine covered with 50 μL of mineral oil in a Bioscreen 100-well Honeycomb plate. Cell growth is monitored by measuring optical density at 600 nm (OD600) using a Bioscreen C Automated Microbiology Growth Curve Analysis System. The plate reader is operated in discontinuous mode, with absorbance readings performed in 30-minute intervals, and preceded by 30-second shaking intervals at maximum speed. Controls consist of inoculated medium lacking carbohydrate. Due to space limitations on the microtitre plate, the carbohydrates are divided into three separate groups: plate A (HMO precursors: glucose, galactose, lactose, NAG, fucose, fructose and sialic acid), plate B (Prebiotics: glucose, Purimune™ GOS, purified Purimune™ GOS, Vivinal® GOS, purified Vivinal® GOS, scFOS and PDX), and plate C (HMOs: glucose, 6′-SL, 3′-SL, 2′-FL, 3′-FL and LNnT). All three plates include a positive control (glucose) and negative control (no carbohydrate).
(§3) The OD600 data for each carbohydrate is corrected by subtracting the OD600 of the basal media (sMRS) from the sample plate for each probiotic. Maximum OD is determined by inspection of the corrected growth data. OD is determined by subtracting the initial corrected OD (time point 0) from the maximum corrected OD. Samples are grown in biologically independent triplicates and the resulting growth kinetic data are expressed as the mean of these replicates.
(§4) For the growth curve plots, OD600 vs. time is first plotted for the bacteria grown on medium lacking carbohydrate (sMRS). For all other carbohydrates, the OD600 data is corrected by subtracting the OD600 of sMRS.

B. infantis M-63 = assay: Bacterial growth assay (OD600), B. infantis M-63; format: cell-based, Bifidobacterium infantis; conditions: 1% carbohydrate in sMRS+cysteine
Method: as §1, §2, §3, §4

B. infantis ATCC 15697 = assay: Bacterial growth assay (OD600), B. infantis ATCC 15697; format: cell-based, Bifidobacterium infantis; conditions: 1% carbohydrate in sMRS+cysteine
Method: as §1, §2, §3, §4

[2] = test system: infant fecal inoculum (diluted feces); assay: In vitro fermentation model simulating large bowel fermentation with infant fecal inoculum (Example 36); format: cell-based, human infant; conditions: for pH change from baseline: at 3, 6, and 12 h after inoculation, comparison among substrates (P<0.0001)
enteric nerve cells = assay: Peristalsis model using luminally perfused mouse colon (Example 35); conditions: colon muscle perfused at 1, 0.5 and 0.1 mg/mL for 15 minutes; for stimulation of enteric nerve cells: without involving gut microbiota and/or their metabolites
Method: In this Example, the effect of 2′-fucosyllactose (2′FL) or 3′ fucosyllactose (3′FL) on stimulating enteric nerve cells in the gastrointestinal tract of rodents is analyzed.
Specifically, a peristalsis model using luminally perfused mouse colon is used to test the stimulation effect of 2′FL or 3′FL on enteric nerve cells. Colon muscle is perfused with 2′FL or 3′FL, at concentrations of 1 mg/mL, 0.5 mg/mL, and 0.1 mg/mL, for 15 minutes. The frequency and amplitude of contractions of the muscle is analyzed.

B. breve ATCC 15700 = assay: Bacterial growth assay (OD600), B. breve ATCC 15700; format: cell-based, Bifidobacterium breve; conditions: 1% carbohydrate in sMRS+cysteine
Method: as §1
After the 2nd pass in sMRS+glucose+cysteine, the cultures are washed once with 10 mL of sterile sMRS+cysteine (no carbohydrate), resuspended in 10 ml of sterile sMRS+cysteine (no carbohydrate) and then used as a 1% inoculum. The carbohydrates are sterilized with a 0.22 micron filter and used at a 1% final concentration. […] Cell growth is monitored by measuring optical density at 600 nm (OD600) using a Bioscreen C Automated Microbiology Growth Curve Analysis System. The plate reader is operated in discontinuous mode, with absorbance readings performed in 30-minute intervals, and preceded by 30-second shaking intervals at maximum speed. […]

| Compound | growth / ability to ferment the carbohydrate (OD600) [1] | growth / ability to ferment the carbohydrate (OD600) (B. infantis M-63) | growth / ability to ferment the carbohydrate (OD600) (B. infantis ATCC 15697) | fermentation rate class (rapidly-, medium-, slowly-fermented oligosaccharide) [2] | fermentation rate [2] | other results |
| --- | --- | --- | --- | --- | --- | --- |
| CC(=O)N[C@H]1[C@H]([C@H](O)[C@H](O)CO)OC(O)(C(=O)O)C[C@@H]1O (stereo partly shown) [sialic acid, N-acetylneuraminic acid] | None of the bifidobacteria are able to ferment | not able to ferment | not able to ferment | – | – | – |
| C[C@H](O)[C@@H](O)[C@@H](O)[C@H](O)C=O [L-fucose, L-(−) Fucose] | None of the bifidobacteria are able to ferment | not able to ferment | not able to ferment | – | – | – |
| OC[C@H]1O[C@@H](O[C@H]2[C@H](O)[C@@H](O)[C@@H](O)O[C@@H]2CO)[C@H](O)[C@@H](O)[C@H]1O [lactose, α-Lactose] | – | – | – | – | – | growth on the carbohydrate (OD600) ([1]; 1% carbohydrate, bifidobacteria which are not able to ferment galactose): reduced growth |
| CC(=O)N[C@H]1[C@H]([C@H](O)[C@H](O)CO)O[C@@](O[C@H]2[C@@H](O)[C@@H](CO)O[C@@H](O[C@H]3[C@H](O)[C@@H](O)C(O)O[C@@H]3CO)[C@@H]2O)(C(=O)O)C[C@@H]1O (stereo partly shown) [3′SL, 3′-sialyllactose] | only B. infantis ATCC 15697 and B. infantis M-63 are able to ferment | able to ferment | able to ferment | Medium-fermented | – | – |
| 3′-fucosyllactose [3′FL] | only B. infantis ATCC 15697 and B. infantis M-63 are able to ferment | able to ferment | able to ferment | Medium-fermented | – | amplitude of contraction (enteric nerve cells): reduced consistently and in a dose response fashion; effectiveness on gut motility, 3′FL compared with 2′FL (enteric nerve cells): more effective than 2′FL; frequency of contraction (enteric nerve cells): reduced consistently and in a dose response fashion; stimulation of enteric nerve cells (enteric nerve cells): direct stimulation of nerve cells |
| CC(=O)N[C@H]1[C@H]([C@H](O)[C@H](O)CO)O[C@@](OC[C@H]2O[C@@H](O[C@H]3[C@H](O)[C@@H](O)[C@H](O)O[C@@H]3CO)[C@H](O)[C@@H](O)[C@H]2O)(C(=O)O)C[C@@H]1O [6′SL, 6′-sialyllactose] | only B. infantis ATCC 15697 and B. infantis M-63 are able to ferment | able to ferment | able to ferment | Medium-fermented | about 1,809 μg/g of dry matter/hour | total SCFA production ([2]; 12 h of fermentation): greater (P<0.05) for the 6′SL and GOS substrates compared to 2′FL; total SCFA production ([2]; after 3 and 6 h of fermentation): lower (P<0.05) with 6′SL compared to GOS |
| CC(=O)N[C@H]1C(O)O[C@H](CO)[C@@H](O)[C@@H]1O (stereo partly drawn) [NAG, N-acetyl-D-glucosamine] | Only B. breve ATCC 15700 is able to ferment | – | – | – | – | growth / ability to ferment the carbohydrate (OD600) (B. breve ATCC 15700): able to ferment |
| 2′-fucosyllactose [2′FL] | only B. infantis ATCC 15697 and B. infantis M-63 are able to ferment | able to ferment | able to ferment | – | about 4,872 μg/g of dry matter/hour | pH change from baseline [2]: greatest; amplitude of contraction (enteric nerve cells): reduced consistently and in a dose response fashion; frequency of contraction (enteric nerve cells): reduced consistently and in a dose response fashion; stimulation of enteric nerve cells (enteric nerve cells): direct stimulation of nerve cells; stimulation of enteric nerve cells (enteric nerve cells; listed as 2′-fucosyllactose): stimulates enteric nerve cells |
| O=C(CO)[C@@H](O)[C@H](O)[C@H](O)CO [fructose, D-Fructose] | majority of bifidobacteria is able to ferment | – | – | – | – | – |
| CC(=O)N[C@H]1[C@H](O[C@H]2[C@@H](O)[C@@H](CO)O[C@@H](O[C@H]3[C@H](O)[C@@H](O)C(O)O[C@@H]3CO)[C@@H]2O)O[C@H](CO)[C@@H](O[C@@H]2O[C@H](CO)[C@H](O)[C@H](O)[C@H]2O)[C@@H]1O (mixture of isomers) [LNnT, Lacto-N-Neotetraose] | – | grow well; also recorded: able to ferment | grow well; also recorded: able to ferment | – | about 4,488 μg/g of dry matter/hour | pH change from baseline [2]: greatest; growth / ability to ferment the carbohydrate (OD600) (B. breve ATCC 15700): grow well; also recorded: able to ferment |
